Data: ChEMBL document CHEMBL1781916, “p38alpha mitogen-activated protein kinase inhibitors: optimization of a series of biphenylamides to give a molecule suitable for clinical progression” (J Med Chem, 2009)

Legend:
[1] = Half life in Lewis rat at 1 mg/kg, iv; type: ADME, organism-based; parameters: dose 1 mg/kg, route intravenous; details: in vivo
[2] = tested on: Rattus norvegicus; test: (§1) Clearance in Lewis rat at 1 mg/kg, iv; type: ADME, organism-based; parameters: dose 1 mg/kg, route intravenous; details: in vivo
[3] = (§2) Oral bioavailability in Lewis rat at 1 mg/kg; type: ADME, organism-based; details: Lewis, in vivo
[4] = as §1; type: ADME, organism-based; parameters: dose 1 mg/kg, route intravenous; details: Lewis, in vivo
[5] = AUC in Lewis rat 0.25 mg/kg, po; details: Lewis, plasma
[6] = Half life in Lewis rat at 0.25 mg/kg, iv and 0.25 mg/kg, po; type: ADME, organism-based; details: in vivo
[7] = Clearance in Lewis rat at 0.25 mg/kg, iv; type: ADME, organism-based; parameters: dose 0.25 mg/kg, route intravenous; details: in vivo
[8] = Oral bioavailability in Lewis rat at 0.25 mg/kg, po; type: ADME, organism-based; details: in vivo
[9] = tested on: Rattus norvegicus; test: Volume of distribution at steady state in Lewis rat at 1 mg/kg, iv; type: ADME, organism-based; parameters: dose 1 mg/kg, route intravenous; details: in vivo
[10] = tested on: Rattus norvegicus; test: as §2; type: ADME, organism-based; details: in vivo
[11] = tested on: Rattus norvegicus; test: AUC in Lewis rat 0.25 mg/kg, po; details: in vivo
[12] = Oral bioavailability in dog; type: ADME, organism-based, Canis lupus familiaris; details: in vivo
[13] = Oral bioavailability in cynomolgus monkey at 1.4 mg/kg; type: ADME, organism-based, Macaca fascicularis; details: in vivo
[14] = Oral bioavailability in mouse; type: ADME, organism-based; details: in vivo
[15] = Ratio of drug level in brain to plasma in Lewis rat at 1 mg/kg, iv and 1 mg/kg, po; type: ADME, organism-based; details: read-out: BPR

Structure (SMILES): Cc1ccc(C(=O)NC2CC2)cc1-c1ccc(C(=O)NCC2CC2)cn1
- half-life [1]: 3 h
- clearance [2]: 1.5 mL/min/kg
- bioavailability [3]: 99%

Structure (SMILES): Cc1c(F)cc(C(=O)NC2CC2)cc1-c1ccc(C(=O)NCC2CC2)cn1
- half-life [1]: 1.9 h
- clearance [4]: 2.5 mL/min/kg
- bioavailability [3]: > 95%
- AUC [5]: 810 ng·h/mL

Structure (SMILES): Cc1c(F)cc(C(=O)NC2CC2)cc1-c1ccc(C(=O)NCC(C)C)cn1
- half-life [6]: 1.1 h
- clearance [7]: 6.4 mL/min/kg
- bioavailability [8]: 56%
- AUC [5]: 360 ng·h/mL

Structure (SMILES): Cc1c(F)cc(C(=O)NC2CC2)cc1-c1ccc(C(=O)N[C@H](C)C(C)C)cn1
- AUC [5]: 50 ng·h/mL

Structure (SMILES): Cc1c(F)cc(C(=O)NC2CC2)cc1-c1ccc(C(=O)N[C@@H](C)C(C)C)cn1
- AUC [5]: 8 ng·h/mL

Structure (SMILES): Cc1c(F)cc(C(=O)NC2CC2)cc1-c1ccc(C(=O)N[C@H](C)C(C)(C)C)cn1
- AUC [5]: 23 ng·h/mL

Structure (SMILES): Cc1c(F)cc(C(=O)NC2CC2)cc1-c1ccc(C(=O)N[C@@H](C)C(C)(C)C)cn1
- AUC [5]: 6 ng·h/mL

Structure (SMILES): Cc1c(F)cc(C(=O)NC2CC2)cc1-c1ccc(C(=O)NCC(C)(C)C)cn1 [LOSMAPIMOD]
- half-life [6]: 1.1 h
- half-life [1]: 1.2 h
- Vdss [9]: 0.9 L/kg
- F [10]: 71%
- bioavailability [8]: 51%
- AUC [11]: 220 ng·h/mL
- bioavailability [12]: 55%
- bioavailability [13]: 35%
- bioavailability [14]: 59%
- Kp [15]: 0.1
